The text below walks through data of ChEMBL document CHEMBL4371100, “Antimicrobial Chrysophaentin Analogs Identified from Laboratory Cultures of the Marine Microalga Chrysophaeum taylorii” (2019).

The test concerns Staphylococcus aureus. The experiment in a line: Antibacterial activity against Staphylococcus aureus ATCC 29213 by CLSI method. The test is classed as functional.

≈ marks a conversion by molar mass, not a printed value.

`Oc1cc(C/C=C(/Cl)Cc2c(Br)c(O)cc(O)c2Br)c(O)cc1Cl` displayed a minimum inhibitory concentration (MIC) of 10 µg/mL (≈ 20 µM).

In turn, `Oc1cc(O)cc(C/C(Cl)=C\Cc2cc(O)c(-c3c(O)cc(C/C(Cl)=C\Cc4cc(O)c(Cl)cc4O)cc3O)cc2O)c1` came in with a minimum inhibitory concentration (MIC) of 10 µg/mL (≈ 15.5 µM).

For the compound `Oc1cc(C/C=C\Cc2c(Br)c(O)cc(O)c2Br)c(O)cc1Cl`, the minimal inhibitory concentration (MIC) was 40 µg/mL (≈ 86.1 µM). This MIC lies about 4-fold higher than the previous one.

`Oc1cc(C/C=C\Cc2c(Br)c(O)cc(O)c2Br)c(O)cc1Br`: 40 µg/mL (≈ 78.6 µM) was the least that counted as inhibitory (MIC).

One may read the MIC as the lowest concentration that inhibits growth of the organism. Low readings indicate a more susceptible organism, high ones a less susceptible organism.
